Read-outs that look alike come from different tables or passages of the source.
Columns and labels:
[1] = Mechanical stability: grinding and kneading by ball milling (XRPD); type: physicochemical
Protocol: Stability tests were performed on mixtures of Form I and Form IV; Form I and Form VII; and Form I, Form IV, and Form VII. In a first mechanical stability test, the polymorphs were analyzed by XRPD following 10 minutes of grinding by ball milling at 30 Hz. In a second mechanical stability test, the polymorphs were analyzed by XRPD following 10 minutes of kneading by ball milling at 30 Hz in the presence of a catalytic amount of 2-propanol (2 μl).

[2] = Stability at various temperatures and relative humidities, seven days (XRPD); type: physicochemical; details: 7 days
Protocol: The stabilities of the polymorphs were also assessed at various temperatures and relative humidities. These analyses were performed by storing 20 mg of polymorph samples for seven days at: (1) 25° C. and 100% relative humidity, (2) 40° C. and 75% relative humidity, (3) 25° C. and 60% relative humidity, and (4) at 60° C. and 75% relative humidity. XRPD was collected on the samples following these incubations and compared to XRPD of the samples prior to storage.

[3] = Storage stability of polymorphic forms at room temperature in a sealed vial (XRPD time course); type: physicochemical; details: room temperature
Protocol: Form I samples were collected for XR-PD analysis following 0, 7, and 42 days of storage, the results of which are shown in FIG. 10.
The stability of polymorphic Form IV was evaluated over 7 days of storage at room temperature in a sealed vial. Portions of the Form IV samples were collected for XRPD analysis following 0 (Form IV), 3 (Form IV-3D3-storage), and 7 days (Form IV-7D3-storage) of storage, the results of which are shown in FIG. 14.
The stability of polymorphic Form IV was also evaluated following crystallization from a room temperature 2-propanol/THF 95/5 (v/v) solvent system containing 40 mg/ml (Z)-endoxifen. XPRD was collected immediately after recovery and following 15 days storage at room temperature in a sealed vial. FIG. 15 provides the resultant XRPD patterns following 15 days storage (Form IV-2PR/THF-15D-storage) and 0 days storage (Form IV-2PR/THF-0D-storage), as well as an XRPD spectrum of Form IV (Form IV) obtained from 2-propanol recrystallization.
Since the room temperature evaporation in acetone yielded a mixture of polymorphic Form I and Form IV XRPD patterns with a very intense unassigned signal at 16.1° 2θ, the sample was re-measured following 7 days storage in a sealed vial. From top to bottom, FIG. 16 provides XRPD patterns of the acetone-generated polymorphs following 7 (EVRT-ACT-7D-storage) and 0 days of storage (EVRT-ACT-0D-storage), a Form IV spectrum (Form IV), and a Form I (Form I) spectrum, respectively.
Form XVII was further assessed after 3 days storage in a sealed vial at room temperature.
Form XVIII was further reassessed by XRPD following 3 and 7 days storage at room temperature in a sealed vial. The data from these analyses are summarized in FIG. 24, which (from top to bottom) provides the sample following 7 days storage (Form XVIII-7D-storage), the sample following 3 days storage (Form XVIII-3D-storage), and the sample immediately following crystallization (Form XVIII).
Form XIX room temperature stability was evaluated with XRPD. XRPD of a Form XIX sample immediately following crystallization (Form XIX) and following 7 days of storage (Form XIX-7D-storage) are shown in FIG. 26.
The stability of polymorphic Form V was over 10 days of storage at room temperature in a sealed vial. XR-PD was performed following 0, 3, and 10 days storage.
To evaluate Form VI stability, XRPD spectra of a Form VI sample were collected following 0, 3, and 14 days of room temperature storage in a sealed vial. The resulting XRPD patterns of the sample following 0 (Form VI), 3 (Form VI-3D-storage), and 14 days storage (Form VI-14D-storage) are shown in FIG. 30.
The stability of polymorphic Form VII was evaluated over 7 days of storage at room temperature in a sealed vial. Portions of the Form VII samples were collected for XRPD analysis over 7 days of storage, the results of which are shown in FIG. 32.
Form VIII stability over 7 days storage in a sealed vial at room temperature was evaluated with XRPD.
The stability of Form IX generated by precipitation from an ethyl acetate/heptane solvent system (Form IX Recrystallization (1)) was evaluated over 7 days of storage at room temperature. Portions of the Form IX sample were collected following 0 and 7 days of storage in a sealed vial and analyzed by XRPD analysis to identify possible changes in the polymorph.
Form IX stability was separately characterized for crystals generated through the addition of (Z)-endoxifen saturated ethyl acetate to heptane (Form IX Recrystallization (2)), which yielded higher crystallinity Form IX than was afforded by heptane addition to (Z)-endoxifen saturated ethyl acetate.
Form IX stability was further evaluated for crystals generated by precipitation from an acetone/butyl methyl ether (acetone/BME) solvent/antisolvent mixture (Form IX Recrystallization (4)). Portions of the Form IX sample were collected following 0 and 5 days of storage in a sealed vial at room temperature and compared to reference XRPD patterns of Forms VII and IX. […]

[4] = Thermogravimetric analysis (TGA), degradation; type: physicochemical
Protocol: The TGA profile of Form I is shown in the top panel of FIG. 12 with the heat-flow profile in the middle panel of FIG. 12, and the first derivative of the TGA profile in the bottom pane of FIG. 12. […] A weight loss of 0.2% was detected between 140° C. and 180° C., potentially ascribable to solvent release. Degradation of Form I took place above 270° C. The heat-flow profile included two main peaks around 50° C. and 160° C. The first derivative of the TGA profile indicated a greatest decline in the TGA profile occurred around 400° C., and that weight loss occurred around 320° C.

[5] = Thermal treatment of Form IV at 90° C. and 50 mbar (XRPD); type: physicochemical
Protocol: To confirm the DSC results, Form IV deterioration was subject to thermal treatment by incubation for 1 hour at 90° C. and 50 mbar, storage for 18 hours at room temperature, and a second incubation for 3.5 hours 90° C. and 50 mbar. XRPD analysis was performed on the sample following the 1 hour incubation at 90° C. and 50 mbar, after the 18 hours of storage at room temperature, and after the final 3.5 hour incubation 90° C. and 50 mbar.

[6] = Slurries with amorphous (Z)-endoxifen (XRPD); type: physicochemical; details: for Polymorphic form recovered (XRPD): 22 days stirring at room temperature
Protocol: Further slurry experiments were performed utilizing amorphous (Z)-endoxifen as an input. 20 mg of amorphous (Z)-endoxifen was suspended in 200 μl of various solvent mixtures. Following 22 days of stirring at room temperature, solid (Z)-endoxifen was recovered from the slurries during centrifugation at 4000 rpm for 3 minutes with a nylon filter (0.22 μm).

[7] = cited from earlier work

CC/C(=C(\c1ccc(O)cc1)c1ccc(OCCNC)cc1)c1ccccc1 [Form IV, (Z)-endoxifen]
XRPD pattern after mechanical grinding ([1]; 10 minutes ball milling at 30 Hz): Form I with a mild signal at 4.8° 20 ascribable to Form IV | XRPD pattern after kneading ([1]; 10 minutes ball milling at 30 Hz with catalytic 2-propanol (2 μl)): mixture of Form I and Form IV | XRPD pattern after storage ([2]; 25° C. and 100% relative humidity): Form I with trace of Form IV | XRPD pattern after storage ([2]; 40° C. and 75% relative humidity): Form I with minor traces of Form IV | XRPD change on storage ([3]; 7 days, sealed vial): stable under ambient conditions | XRPD change on storage ([3]; 15 days, sealed vial, sample crystallized from 2-propanol/THF 95/5 (v/v)): maintained a Form IV XRPD pattern following 15 days storage, its XRPD spectrum also exhibited a new signal at 16.1° 2θ | Degradation temperature (TGA) [4]: above 270 °C | Degradation temperature (TGA) ([4]; sample from scaled-up crystallization): above 270 °C | XRPD pattern after thermal treatment ([5]; after 1 hour at 90° C. and 50 mbar): Form IV with traces of Form I | XRPD pattern after thermal treatment ([5]; after final 3.5 hour treatment at 90° C. and 50 mbar (following 1 hour at 90° C. and 18 hours at room temperature)): Form IV with traces of Form I

CC/C(=C(\c1ccc(O)cc1)c1ccc(OCCNC)cc1)c1ccccc1 [amorphous (Z)-endoxifen, (Z)-endoxifen]
XRPD change on storage ([3]; 18 days): stable and does not convert into other polymorphic forms | Output Main phase [phase] ([6]; SLRT: acetone/tetrahydrofuran 90/10, 100 mg/mL, RT, 22 d, amorphous input): Form I | Polymorphic form recovered (XRPD) ([6]; acetone/tetrahydrofuran slurry): Form I with additional unassigned peaks | Polymorphic form recovered (XRPD) ([6]; ethyl acetate/heptane slurry): Form IX | Polymorphic form recovered (XRPD) ([6]; one of the 2-propanol/tetrahydrofuran slurries): Form IV

CC/C(=C(\c1ccccc1)c1ccc(OCCN(C)C)cc1)c1ccccc1 [tamoxifen, (Z)-2-[4-(1,2-diphenyl-1-butenyl)phenoxy]-N,N-dimethylethanamine]
Terminal elimination half-life ([7]; in vivo): 120 to 170 h | Peak concentration time ([7]; post-dose): approximately 5 hours | Reported therapeutic levels of plasma tamoxifen ([7]; subjects dosed with 20 mg of oral tamoxifen): ≥ 30 nM

From patent US20250066286A1, “COMPOSITIONS OF (Z)-ENDOXIFEN AND METHODS OF ENRICHMENT THEREOF” (Atossa Therapeutics, Inc., priority 2022, published 2025)
